# Results taken from ChEMBL document CHEMBL1156730, “Structure-activity relationships of new inhibitors of breast cancer resistance protein (ABCG2)” (Bioorg Med Chem, 2008).
# How the values were obtained:
# Format in all cases: cell-based
# [1] = target: T1, Broad substrate specificity ATP-binding cassette transporter ABCG2 (Homo sapiens, UniProt Q9UNQ0); experiment: Inhibition of ABCG2 in human mitoxantrone-resistant MCF7 cells by Hoechst 33342 assay
# T1 sequence (Q9UNQ0 whole entry): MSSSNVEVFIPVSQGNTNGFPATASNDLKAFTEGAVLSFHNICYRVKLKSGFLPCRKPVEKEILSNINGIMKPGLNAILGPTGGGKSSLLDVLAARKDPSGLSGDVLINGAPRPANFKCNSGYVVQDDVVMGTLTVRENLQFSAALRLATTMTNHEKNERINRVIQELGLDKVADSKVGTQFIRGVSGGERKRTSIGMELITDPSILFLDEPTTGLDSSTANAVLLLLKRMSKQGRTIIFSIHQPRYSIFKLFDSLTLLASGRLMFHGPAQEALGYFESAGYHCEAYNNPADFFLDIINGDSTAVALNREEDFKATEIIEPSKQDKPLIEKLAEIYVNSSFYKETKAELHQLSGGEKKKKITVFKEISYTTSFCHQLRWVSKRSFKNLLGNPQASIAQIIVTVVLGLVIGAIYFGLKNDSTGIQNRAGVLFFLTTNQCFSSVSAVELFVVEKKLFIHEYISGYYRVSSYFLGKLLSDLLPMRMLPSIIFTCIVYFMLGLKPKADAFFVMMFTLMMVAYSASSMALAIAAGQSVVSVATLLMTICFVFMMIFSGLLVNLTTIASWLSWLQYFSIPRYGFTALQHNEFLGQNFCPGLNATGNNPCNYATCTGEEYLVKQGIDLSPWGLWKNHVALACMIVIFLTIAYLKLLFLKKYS
# [2] = target: ATP-dependent translocase ABCB1 (Homo sapiens, UniProt P08183); experiment: Inhibition of P-gp in human adriamycin-resistant A2780 cells by Hoechst 33342 assay
# Chain of ATP-dependent translocase ABCB1 (P08183 whole entry): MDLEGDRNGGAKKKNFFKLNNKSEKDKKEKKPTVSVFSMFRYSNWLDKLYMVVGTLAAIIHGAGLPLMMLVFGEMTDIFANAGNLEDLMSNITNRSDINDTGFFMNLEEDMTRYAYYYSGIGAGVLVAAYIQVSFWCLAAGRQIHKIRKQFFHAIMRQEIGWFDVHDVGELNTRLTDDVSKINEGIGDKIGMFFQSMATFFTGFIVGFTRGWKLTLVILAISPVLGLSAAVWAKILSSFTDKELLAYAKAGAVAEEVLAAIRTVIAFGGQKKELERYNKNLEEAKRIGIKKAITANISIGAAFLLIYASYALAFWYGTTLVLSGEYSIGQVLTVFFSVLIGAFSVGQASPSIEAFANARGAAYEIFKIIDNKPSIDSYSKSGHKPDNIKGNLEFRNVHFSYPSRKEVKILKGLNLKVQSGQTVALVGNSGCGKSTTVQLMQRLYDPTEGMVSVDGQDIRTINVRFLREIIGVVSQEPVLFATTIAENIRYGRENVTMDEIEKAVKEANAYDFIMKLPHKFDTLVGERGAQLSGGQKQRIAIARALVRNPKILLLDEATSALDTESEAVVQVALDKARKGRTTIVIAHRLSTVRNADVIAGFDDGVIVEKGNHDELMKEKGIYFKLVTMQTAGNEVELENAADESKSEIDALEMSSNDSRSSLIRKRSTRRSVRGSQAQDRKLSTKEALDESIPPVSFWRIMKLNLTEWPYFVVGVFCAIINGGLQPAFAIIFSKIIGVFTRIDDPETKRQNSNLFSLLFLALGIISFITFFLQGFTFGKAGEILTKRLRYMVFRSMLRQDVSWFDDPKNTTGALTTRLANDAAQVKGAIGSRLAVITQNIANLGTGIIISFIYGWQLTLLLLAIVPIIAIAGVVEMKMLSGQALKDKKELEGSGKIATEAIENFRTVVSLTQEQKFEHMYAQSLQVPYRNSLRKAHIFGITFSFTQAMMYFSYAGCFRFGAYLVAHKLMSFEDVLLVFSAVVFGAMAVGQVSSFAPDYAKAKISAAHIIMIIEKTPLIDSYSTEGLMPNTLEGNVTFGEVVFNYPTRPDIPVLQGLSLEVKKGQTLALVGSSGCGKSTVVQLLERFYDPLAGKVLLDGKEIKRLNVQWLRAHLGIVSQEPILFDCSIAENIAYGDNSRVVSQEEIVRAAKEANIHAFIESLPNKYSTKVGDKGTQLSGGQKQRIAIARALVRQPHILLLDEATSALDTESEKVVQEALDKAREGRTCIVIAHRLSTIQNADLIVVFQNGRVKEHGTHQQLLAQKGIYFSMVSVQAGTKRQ
# [3] = target: T1, Broad substrate specificity ATP-binding cassette transporter ABCG2; experiment: Inhibition of ABCG2 in human mitoxantrone-resistant MCF7 cells by Hoechst 33342 assay using one phase exponential association analysis
# [4] = target: T1, Broad substrate specificity ATP-binding cassette transporter ABCG2; experiment: Inhibition of ABCG2 in human mitoxantrone-resistant MCF7 cells by Hoechst 33342 assay using linear regression analysis
# [5] = target: T1, Broad substrate specificity ATP-binding cassette transporter ABCG2; experiment: Inhibition of ABCG2 in human mitoxantrone-resistant MCF7 cells at 5.6 uM by Hoechst 33342 assay; details: mcf7, 5.6 µM
Structure (SMILES),IC50 [1],further results
COc1ccc(C(=O)Nc2ccccc2C(=O)Nc2ccc(CCN3CCc4cc(OC)c(OC)cc4C3)cc2)cc1OC,2.09 µM,–
O=C(Nc1ccc(CCN2CCc3ccccc3C2)cc1)c1ccccc1[N+](=O)[O-],79.4 µM,–
COc1cc2c(cc1OC)CN(CCc1ccc(NC(=O)c3cc(OC)c(OC)cc3[N+](=O)[O-])cc1)CC2,64.6 µM,–
COc1cc2c(cc1OC)CN(CCc1ccc(NC(=O)c3ccnc4ccccc34)cc1)CC2,36.3 µM,–
COc1cc2c(cc1OC)CN(CCc1ccc(NC(=O)c3cnc4ccccc4n3)cc1)CC2,6.03 µM,–
COc1cc2c(cc1OC)CN(CCc1ccc(NC(=O)c3ccccc3NC(=O)c3ccc(C)cc3)cc1)CC2,3.89 µM,–
COc1cc2c(cc1OC)CN(CCc1ccc(NC(=O)c3cnc4ccccc4c3)cc1)CC2,24 µM,–
Nc1ccccc1C(=O)Nc1ccc(CCN2CCc3ccccc3C2)cc1,74.1 µM,–
COc1cc2c(cc1OC)CN(CCc1ccc(NC(=O)c3cc4ccccc4cn3)cc1)CC2,6.03 µM,–
COc1cc2c(cc1OC)CN(CCc1ccc(NC(=O)c3cccc(Br)c3)cc1)CC2,22.9 µM,–
COc1cc2c(cc1OC)CN(CCc1ccc(NC(=O)c3cccc4ccccc34)cc1)CC2,12.9 µM,–
COc1cc2c(cc1OC)CN(CCc1ccc(NC(=O)c3ccc4ccccc4c3)cc1)CC2,7.24 µM,–
COc1ccc(C(=O)Nc2ccc(CCN3CCc4cc(OC)c(OC)cc4C3)cc2)cc1OC,47.9 µM,–
O=C(Nc1ccc(CCN2CCc3ccccc3C2)cc1)c1ccc([N+](=O)[O-])cc1,6.61 µM,–
COc1cc2c(cc1OC)CN(CCc1ccc(NC(=O)c3ccc(N)cc3)cc1)CC2,263 µM,–
COc1cc2c(cc1OC)CN(CCc1ccc(NC(=O)c3ccc(Br)cc3)cc1)CC2,11.5 µM,–
COc1cc2c(cc1OC)CN(CCc1ccc(NC(=O)c3ccccc3NC(=O)c3ccccc3)cc1)CC2,3.98 µM,–
COc1cc2c(cc1OC)CN(CCc1ccc(NC(=O)c3cc(OC)c(OC)cc3NC(=O)c3cnc4ccccc4c3)cc1)CC2,1.45 µM,IC50 [2]: 0.0724 µM

Structure (SMILES),IC50 [1],further results
COc1cc2c(cc1OC)CN(CCc1ccc(NC(=O)c3ccccc3Br)cc1)CC2,21.9 µM,–
COc1cc2c(cc1OC)CN(CCc1ccc(NC(=O)c3ccc4ncccc4c3)cc1)CC2,14.5 µM,–
COc1cc2c(cc1OC)CN(CCc1ccc(NC(=O)c3cccnc3)cc1)CC2,44.7 µM,–
Nc1ccc(C(=O)Nc2ccc(CCN3CCc4ccccc4C3)cc2)cc1,77.6 µM,–
O=C(Nc1ccc(CCN2CCc3ccccc3C2)cc1)c1cnc2ccccc2c1,5.01 µM,–
O=C(Nc1ccccc1C(=O)Nc1ccc(CCN2CCc3ccccc3C2)cc1)c1cnc2ccccc2c1,1 µM,IC50 [3]: 0.676 µM; IC50 [4]: 0.832 µM; Activity [5]: Active
COc1cc2c(cc1OC)CN(CCc1ccc(NC(=O)c3ccccc3N)cc1)CC2,85.1 µM,–
COc1cc2c(cc1OC)CN(CCc1ccc(NC(=O)c3ccccc3[N+](=O)[O-])cc1)CC2,110 µM,–
COc1cc2c(cc1OC)CN(CCc1ccc(NC(=O)c3ccccc3NC(=O)c3cnc4ccccc4c3)cc1)CC2,5.01 µM,–
COc1cc2c(cc1OC)CN(CCc1ccc(NC(=O)c3ccccc3)cc1)CC2,24.5 µM,IC50 [2]: 4.79 µM
COc1cc2c(cc1OC)CN(CCc1ccc(NC(=O)C3Oc4ccccc4O3)cc1)CC2,15.1 µM,IC50 [2]: 1.41 µM
COc1cc2c(cc1OC)CN(CCc1ccc(NC(=O)c3ccc([N+](=O)[O-])cc3)cc1)CC2,7.59 µM,–
COc1ccc(CCN(C)CCCC(C#N)(c2ccc(OC)c(OC)c2)C(C)C)cc1OC (stereo unspecified),525 µM,–
COc1ccc([C@@H]2Sc3ccccc3N(CCN(C)C)C(=O)[C@@H]2OC(C)=O)cc1 [DILTIAZEM],851 µM,–
COC(=O)C1=C(C)NC(C)=C(C(=O)OCCN(C)Cc2ccccc2)C1c1cccc([N+](=O)[O-])c1 (stereo unspecified) [NICARDIPINE],16.6 µM,–
CC(=O)[C@H]1CC[C@H]2[C@@H]3CCC4=CC(=O)CC[C@]4(C)[C@H]3CC[C@]12C [PROGESTERONE],126 µM,–
COC(=O)[C@H]1[C@H]2C[C@@H]3c4[nH]c5cc(OC)ccc5c4CCN3C[C@H]2C[C@@H](OC(=O)c2cc(OC)c(OC)c(OC)c2)[C@@H]1OC [RESERPINE],26.3 µM,–
